Laboratory results reported in patent publication US20240115654A1, “INTRAVENOUS ADMINISTRATION OF ENGINEERED ANTIMICROBIAL AMPHIPHILIC PEPTIDES” (priority 2021, published 2024).
Where two headings read alike, the source gives them in different places. Peptide text beside a SMILES is read from it.

Conditions: human, in vivo; for Vd: mean apparent volume of distribution (Vz)
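Also: phase 1 study in human subjects given one IV dose of the peptide, enrolled in sequential ascending-dose cohorts and randomized to peptide or placebo.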

Protocol: Administration was a single 1-hour infusion.
Subjects were enrolled in sequential cohorts of peptide ascending dose levels and randomly assigned to receive a single IV administration of either peptide or placebo over 1 to 2 hours. […] In addition, the infusion volume was adjusted for Cohort 4 to maintain drug concentrations in line with Cohort 2
Blood samples for PK assessment were collected at pre-dose, at the midpoint of infusion, within 1 minute after the end-of-infusion and at 0.5, 1, 2, 4, 6, 8, 12, 20, 24, 36 and 48 hours after the end-of-infusion.
The pharmaceutical composition was stored at 2° C. to 8° C. for up to 14 days and then 15° C. to 25° C. for up to 48 hours for dosing.
Subjects were enrolled in sequential cohorts of peptide ascending dose levels and randomly assigned to receive a single IV administration of either peptide or placebo over 1 to 2 hours.

CC(C)[C@H](NC(=O)[C@H](Cc1c[nH]c2ccccc12)NC(=O)[C@H](CCCNC(=N)N)NC(=O)[C@H](CCCNC(=N)N)NC(=O)[C@@H](NC(=O)[C@@H](NC(=O)[C@H](CCCNC(=N)N)NC(=O)[C@@H](NC(=O)[C@@H](NC(=O)[C@H](CCCNC(=N)N)NC(=O)[C@H](CCCNC(=N)N)NC(=O)[C@H](Cc1c[nH]c2ccccc12)NC(=O)[C@@H](NC(=O)[C@H](CCCNC(=N)N)NC(=O)[C@H](CCCNC(=N)N)NC(=O)[C@@H](NC(=O)[C@H](CCCNC(=N)N)NC(=O)[C@H](CCCNC(=N)N)NC(=O)[C@@H](NC(=O)[C@H](Cc1c[nH]c2ccccc12)NC(=O)[C@H](CCCNC(=N)N)NC(=O)[C@@H](N)CCCNC(=N)N)C(C)C)C(C)C)C(C)C)C(C)C)C(C)C)C(C)C)C(C)C)C(=O)N[C@@H](CCCNC(=N)N)C(=O)N[C@@H](CCCNC(=N)N)C(N)=O [SEQ ID NO: 1] (H-RRWVRRVRRVWRRVVRVVRRWVRR-NH2)
Cmax (iv, Cohort 4, 0.5 mg/kg IV infusion 2 hours, Median): 1970 ng/mL | Cmax (iv, Cohort 4, 0.5 mg/kg IV, infusion 2 hours, cohort Geometric Mean): 1770 ng/mL | Cmax (iv, Cohort 4, 0.5 mg/kg IV, infusion 2 hours, cohort Mean): 1830 ng/mL | Cmax (iv, Cohort 4, 0.5 mg/kg IV, infusion 2 hours, cohort Median): 1970 ng/mL | Cmax (iv, Cohort 5, 1 mg/kg IV infusion 4 hours, Geometric Mean): 2580 ng/mL | Cmax (iv, Cohort 5, 1 mg/kg IV infusion 4 hours, Mean): 2650 ng/mL | Cmax (iv, Cohort 5, 1 mg/kg IV infusion 4 hours, Median): 2510 ng/mL | Cmax (iv, Cohort 5, 1 mg/kg IV infusion 4 hours, individual subject): 4000 ng/mL | Tmax (iv, Tmax, Cohort 1, 0.05 mg/kg IV infusion, Geometric Mean): 1 h | Tmax (iv, Tmax, Cohort 1, 0.05 mg/kg IV infusion, Mean): 1 h | Tmax (iv, Tmax, Cohort 1, 0.05 mg/kg IV infusion, Median): 1 h | Tmax (iv, Tmax, Cohort 1, 0.05 mg/kg IV infusion, cohort Geometric Mean): 1 h | Tmax (iv, Tmax, Cohort 1, 0.05 mg/kg IV infusion, cohort Mean): 1 h | Tmax (iv, Tmax, Cohort 1, 0.05 mg/kg IV infusion, cohort Median): 1 h | Tmax (iv, Tmax, Cohort 1, 0.05 mg/kg IV infusion, individual subject): 1 h | Tmax (iv, Tmax, Cohort 1, 0.05 mg/kg IV infusion, individual subjects): 1 h | Tmax (iv, Tmax, Cohort 2, […] IV infusion, Geometric Mean): 1 h | Tmax (iv, Tmax, Cohort 2, […] IV infusion, Mean): 1 h | Tmax (iv, Tmax, Cohort 2, […] IV infusion, Median): 1 h | Tmax (iv, Tmax, Cohort 2, […] IV infusion, cohort Geometric Mean): 1 h | Tmax (iv, Tmax, Cohort 2, […] IV infusion, cohort Mean): 1 h | Tmax (iv, Tmax, Cohort 2, […] IV infusion, cohort Median): 1 h | Tmax (iv, Tmax, Cohort 2, […] IV infusion, individual subject): 1 h | Tmax (iv, Tmax, Cohort 2, […] IV infusion, individual subjects): 1 h | Tmax (iv, Tmax, Cohort 3, […] IV infusion, Geometric Mean): 0.66 h | Tmax (iv, Tmax, Cohort 3, […] IV infusion, Mean): 0.71 h | Tmax (iv, Tmax, Cohort 3, […] IV infusion, Median): 0.5 h | Tmax (iv, Tmax, Cohort 3, […] IV infusion, cohort Geometric Mean): 0.66 h | Tmax (iv, Tmax, Cohort 3, […] IV infusion, cohort Mean): 0.71 h | Tmax (iv, Tmax, Cohort 3, […] IV infusion, cohort Median): 0.5 h | Tmax (iv, Tmax, Cohort 3, […] IV infusion, individual subject): 1 h | Tmax (iv, Tmax, Cohort 3, […] IV infusion, individual subjects): 1 h | Tmax (iv, Tmax, Cohort 3b, […] IV infusion 2 hours, Geometric Mean): 2 h | Tmax (iv, Tmax, Cohort 3b, […] IV infusion 2 hours, Mean): 2 h | Tmax (iv, Tmax, Cohort 3b, […] IV infusion 2 hours, Median): 2 h | Tmax (iv, Tmax, Cohort 3b, […] IV infusion 2 hours, individual subject): 2 h | Tmax (iv, Tmax, Cohort 3b, infusion 2 hours, cohort Geometric Mean): 2 h | Tmax (iv, Tmax, Cohort 3b, infusion 2 hours, cohort Mean): 2 h | Tmax (iv, Tmax, Cohort 3b, infusion 2 hours, cohort Median): 2 h | Tmax (iv, Tmax, Cohort 3b, infusion 2 hours, individual subjects): 2 h | Tmax (iv, Tmax, Cohort 4, 0.5 mg/kg IV infusion 2 hours, Geometric Mean): 2 h | Tmax (iv, Tmax, Cohort 4, 0.5 mg/kg IV infusion 2 hours, Mean): 2 h | Tmax (iv, Tmax, Cohort 4, 0.5 mg/kg IV infusion 2 hours, Median): 2 h | Tmax (iv, Tmax, Cohort 4, 0.5 mg/kg IV infusion 2 hours, individual subject): 2 h | Tmax (iv, Tmax, Cohort 4, 0.5 mg/kg IV, infusion 2 hours, cohort Geometric Mean): 2 h | Tmax (iv, Tmax, Cohort 4, 0.5 mg/kg IV, infusion 2 hours, cohort Mean): 2 h | Tmax (iv, Tmax, Cohort 4, 0.5 mg/kg IV, infusion 2 hours, cohort Median): 2 h | Tmax (iv, Tmax, Cohort 4, 0.5 mg/kg IV, infusion 2 hours, individual subjects): 2 h | Tmax (iv, Tmax, Cohort 5, 1 mg/kg IV infusion 4 hours, Geometric Mean): 4 h | Tmax (iv, Tmax, Cohort 5, 1 mg/kg IV infusion 4 hours, Mean): 4 h | Tmax (iv, Tmax, Cohort 5, 1 mg/kg IV infusion 4 hours, Median): 4 h | Tmax (iv, Tmax, Cohort 5, 1 mg/kg IV infusion 4 hours, individual subject): 4 h | half-life (iv, […], t1/2, […] IV 1-hr infusion): 10.5 h | half-life (iv, […], t1/2, […] IV 1-hr infusion (only 3 participants)): 19.9 h | half-life (iv, […], t1/2, […] IV 2-hr infusion): 13.2 h | Tmax (iv, median Tmax, 0.05 and […] doses, 1-hour IV infusion (Cohorts 1, 2)): 1.02 h | Tmax (iv, median Tmax, 0.25 and 0.5 mg/kg doses, 2-hour IV infusion (Cohorts 3b, 4)): 2.02 h | half-life (iv, t1/2, Cohort 1, 0.05 mg/kg IV infusion, Geometric Mean): 7.33 h | half-life (iv, t1/2, Cohort 1, 0.05 mg/kg IV infusion, Mean): 7.36 h | half-life (iv, t1/2, Cohort 1, 0.05 mg/kg IV infusion, Median): 7.29 h | half-life (iv, t1/2, Cohort 1, 0.05 mg/kg IV infusion, cohort Geometric Mean): 7.33 h | half-life (iv, t1/2, Cohort 1, 0.05 mg/kg IV infusion, cohort Mean): 7.36 h | half-life (iv, t1/2, Cohort 1, 0.05 mg/kg IV infusion, cohort Median): 7.29 h | half-life (iv, t1/2, Cohort 1, 0.05 mg/kg IV infusion, individual subject): 6.62 h | half-life (iv, t1/2, Cohort 1, 0.05 mg/kg IV infusion, individual subjects): 6.62 h | half-life (iv, t1/2, Cohort 2, […] IV infusion, Geometric Mean): 10.1 h | half-life (iv, t1/2, Cohort 2, […] IV infusion, Mean): 10.5 h | half-life (iv, t1/2, Cohort 2, […] IV infusion, Median): 9.2 h | half-life (iv, t1/2, Cohort 2, […] IV infusion, cohort Geometric Mean): 10.1 h | half-life (iv, t1/2, Cohort 2, […] IV infusion, cohort Mean): 10.5 h | half-life (iv, t1/2, Cohort 2, […] IV infusion, cohort Median): 9.2 h | half-life (iv, t1/2, Cohort 3, […] IV infusion, Geometric Mean): 13.6 h | half-life (iv, t1/2, Cohort 3, […] IV infusion, Mean): 15.2 h | half-life (iv, t1/2, Cohort 3, […] IV infusion, Median): 19 h | half-life (iv, t1/2, Cohort 3, […] IV infusion, cohort Geometric Mean): 13.6 h | half-life (iv, t1/2, Cohort 3, […] IV infusion, cohort Mean): 15.2 h | half-life (iv, t1/2, Cohort 3, […] IV infusion, cohort Median): 19 h | half-life (iv, t1/2, Cohort 3b, […] IV infusion 2 hours, Geometric Mean): 12.8 h | half-life (iv, t1/2, Cohort 3b, […] IV infusion 2 hours, Mean): 13.1 h | half-life (iv, t1/2, Cohort 3b, […] IV infusion 2 hours, Median): 13.1 h | half-life (iv, t1/2, Cohort 3b, […] IV infusion 2 hours, individual subject): 17.5 h | half-life (iv, t1/2, Cohort 3b, infusion 2 hours, cohort Geometric Mean): 12.8 h | half-life (iv, t1/2, Cohort 3b, infusion 2 hours, cohort Mean): 13.1 h | half-life (iv, t1/2, Cohort 3b, infusion 2 hours, cohort Median): 13.1 h | half-life (iv, t1/2, Cohort 3b, infusion 2 hours, individual subjects): 17.5 h | half-life (iv, t1/2, Cohort 4, 0.5 mg/kg IV infusion 2 hours, Geometric Mean): 15.7 h | half-life (iv, t1/2, Cohort 4, 0.5 mg/kg IV infusion 2 hours, Mean): 16.2 h | half-life (iv, t1/2, Cohort 4, 0.5 mg/kg IV infusion 2 hours, Median): 15.6 h | half-life (iv, t1/2, Cohort 4, 0.5 mg/kg IV infusion 2 hours, individual subject): 12.6 h | half-life (iv, t1/2, Cohort 4, 0.5 mg/kg IV, infusion 2 hours, cohort Geometric Mean): 15.7 h | half-life (iv, t1/2, Cohort 4, 0.5 mg/kg IV, infusion 2 hours, cohort Mean): 16.2 h | half-life (iv, t1/2, Cohort 4, 0.5 mg/kg IV, infusion 2 hours, cohort Median): 15.6 h | half-life (iv, t1/2, Cohort 4, 0.5 mg/kg IV, infusion 2 hours, individual subjects): 12.6 h | half-life (iv, t1/2, Cohort 5, 1 mg/kg IV infusion 4 hours, Geometric Mean): 18.6 h | half-life (iv, t1/2, Cohort 5, 1 mg/kg IV infusion 4 hours, Mean): 19.9 h | half-life (iv, t1/2, Cohort 5, 1 mg/kg IV infusion 4 hours, Median): 20.9 h | Tmax (mean Tmax, Cohort 1, from the start of infusion): 0.85 h | Tmax (mean Tmax, Cohort 5, from the start of infusion): 4.19 h | Vd (Cohort 1): 25.5 L | Vd (Cohort 5): 94.2 L | half-life (mean half-life, Cohorts 1 to 3 (0.05 to […], 1-hour infusion), increasing with dose): 7.22 to 15.2 h | half-life (mean half-life, Cohorts 3b and 4 (0.25 and 0.5 mg/kg, 2-hour infusion), increasing with dose): 13.1 to 16.2 h | half-life (mean terminal half-life, range over dose groups, dose range 0.05 to 0.5 mg/kg (Cohorts 1 to 4)): 7.4 to 19.9 h | half-life (t1/2, single 1-hour infusion 0.05 mg/kg, Geometric Mean): 7.33 h | half-life (t1/2, single 1-hour infusion 0.05 mg/kg, Mean): 7.36 h | half-life (t1/2, single 1-hour infusion 0.05 mg/kg, Median): 7.29 h | half-life (t1/2, single 1-hour infusion 0.05 mg/kg, individual subjects): 6.62 h
